Measurements taken from ChEMBL document CHEMBL5360618, “PepScaf: Harnessing Machine Learning with In Vitro Selection toward De Novo Macrocyclic Peptides against IL-17C/IL-17RE Interaction” (J Med Chem, 2023).
Starred links: 1 amine or outer side, 2 acyl side, 3 side chain; linkers in the order of their positions; H or OH if unused. Positions of bridges follow the written chain, without caps; N, C: chain ends. Residues, ends and D or L forms follow the SMILES beside them. CO = O=C([*:1])[*:2]

target: T1, IL17-RE-IL-17C (Homo sapiens, UniProt Q8NFR9+Q9P0M4); assay: Inhibition of IL-17C/IL-17RE interaction (unknown origin) incubated for 1.5 hrs by ELISA method; type: protein-complex assay
T1 sequence (Q9P0M4 whole entry): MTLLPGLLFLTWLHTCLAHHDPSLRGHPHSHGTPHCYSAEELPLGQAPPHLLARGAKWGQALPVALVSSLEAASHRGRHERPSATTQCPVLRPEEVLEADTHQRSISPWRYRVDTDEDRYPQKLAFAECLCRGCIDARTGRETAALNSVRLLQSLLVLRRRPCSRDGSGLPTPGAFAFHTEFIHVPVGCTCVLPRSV
T1 sequence (Q8NFR9 whole entry): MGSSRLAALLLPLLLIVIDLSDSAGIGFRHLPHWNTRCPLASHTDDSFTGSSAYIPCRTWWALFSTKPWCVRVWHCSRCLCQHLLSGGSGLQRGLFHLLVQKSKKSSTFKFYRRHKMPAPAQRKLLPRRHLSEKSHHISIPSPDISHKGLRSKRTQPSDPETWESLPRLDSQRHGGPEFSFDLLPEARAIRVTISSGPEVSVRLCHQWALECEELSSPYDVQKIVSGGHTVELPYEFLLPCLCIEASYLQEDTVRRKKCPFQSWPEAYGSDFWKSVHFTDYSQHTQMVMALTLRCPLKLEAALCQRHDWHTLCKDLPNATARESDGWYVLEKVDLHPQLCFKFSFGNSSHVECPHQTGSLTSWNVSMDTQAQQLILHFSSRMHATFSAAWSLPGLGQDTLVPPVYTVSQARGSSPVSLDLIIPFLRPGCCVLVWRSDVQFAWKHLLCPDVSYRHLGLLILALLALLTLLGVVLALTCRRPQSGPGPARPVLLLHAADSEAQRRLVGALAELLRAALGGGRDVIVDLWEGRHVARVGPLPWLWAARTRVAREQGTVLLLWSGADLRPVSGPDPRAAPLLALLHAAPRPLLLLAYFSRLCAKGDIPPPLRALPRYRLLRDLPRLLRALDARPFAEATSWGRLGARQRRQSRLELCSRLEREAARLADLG

| SMILES | IC50 [µM] |
| --- | --- |
| CC(C)C[C@@H]1NC(=O)[C@H](Cc2c[nH]c3ccccc23)NC(=O)[C@H](Cc2ccccc2)NC(=O)[C@H](CC(N)=O)NC(=O)[C@H](Cc2ccc(O)cc2)NC(=O)[C@H](CO)NC(=O)[C@H](Cc2ccc(O)cc2)NC(=O)[C@H](CCCNC(=N)N)NC(=O)[C@H](CC(C)C)NC(=O)[C@H](CC(=O)O)NC(=O)[C@H](Cc2ccc(O)cc2)NC(=O)CSC[C@@H](C(=O)NCC(N)=O)NC(=O)[C@H](C)NC1=O ({CH2CO}-YDLRYSYNFWLACG-NH2; thioether N-13) | > 30 |
| CC[C@H](C)[C@@H]1NC(=O)[C@H](Cc2c[nH]c3ccccc23)NC(=O)[C@H](C)NC(=O)[C@H](CC(=O)O)NC(=O)[C@H](Cc2ccccc2)NC(=O)[C@H](Cc2c[nH]cn2)NC(=O)[C@H](Cc2ccc(O)cc2)NC(=O)CSC[C@@H](C(=O)NCC(N)=O)NC(=O)[C@H](CC(C)C)NC(=O)[C@H](CO)NC(=O)[C@H](CCCNC(=N)N)NC(=O)[C@H](C)NC1=O ({CH2CO}-YHFDAWIARSLCG-NH2; thioether N-12) | > 30 |
| CC[C@H](C)[C@@H]1NC(=O)[C@H](Cc2c[nH]c3ccccc23)NC(=O)[C@H](C)NC(=O)[C@H](CC(=O)O)NC(=O)[C@H](Cc2ccccc2)NC(=O)[C@H](Cc2c[nH]cn2)NC(=O)[C@H](Cc2ccc(O)cc2)NC(=O)CSC[C@@H](C(=O)NCC(N)=O)NC(=O)[C@H](CCC(N)=O)NC(=O)[C@H](CC(C)C)NC(=O)[C@H](CC(C)C)NC(=O)[C@H]([C@@H](C)O)NC(=O)[C@H](C)NC1=O ({CH2CO}-YHFDAWIATLLQCG-NH2; thioether N-13) | > 30 |
| CC(C)C[C@@H]1NC(=O)[C@H](Cc2c[nH]c3ccccc23)NC(=O)[C@H](C)NC(=O)[C@H](CC(=O)O)NC(=O)[C@H](Cc2ccccc2)NC(=O)[C@H](Cc2c[nH]cn2)NC(=O)[C@H](Cc2ccc(O)cc2)NC(=O)CSC[C@@H](C(=O)NCC(=O)O)NC(=O)[C@H](CC(C)C)NC(=O)[C@H](Cc2ccc(O)cc2)NC(=O)[C@H](CC(=O)O)NC(=O)[C@H](CCCCN)NC1=O ({CH2CO}-YHFDAWLKDYLCG-OH; thioether N-12) | > 30 |
| CC(C)C[C@@H]1NC(=O)[C@H](Cc2ccc(O)cc2)NC(=O)[C@H](CC(=O)O)NC(=O)[C@H](CCCCN)NC(=O)[C@H](CC(C)C)NC(=O)[C@H](Cc2c[nH]c3ccccc23)NC(=O)[C@H](C)NC(=O)[C@H](CC(=O)O)NC(=O)[C@H](Cc2ccccc2)NC(=O)[C@H](Cc2c[nH]cn2)NC(=O)[C@H](Cc2ccc(O)cc2)NC(=O)CSC[C@@H](C(=O)NCC(N)=O)NC(=O)CNC1=O ({CH2CO}-YHFDAWLKDYLGCG-NH2; thioether N-13) | > 30 |
| CC(C)C[C@@H]1NC(=O)[C@H](Cc2c[nH]c3ccccc23)NC(=O)[C@H](C)NC(=O)[C@H](CC(=O)O)NC(=O)[C@H](Cc2ccccc2)NC(=O)[C@H](Cc2c[nH]cn2)NC(=O)[C@H](Cc2ccc(O)cc2)NC(=O)CSC[C@@H](C(=O)NCC(N)=O)NC(=O)[C@H](CC(C)C)NC(=O)[C@H](CC(C)C)NC(=O)[C@H]([C@@H](C)O)NC(=O)[C@H](CO)NC1=O ({CH2CO}-YHFDAWLSTLLCG-NH2; thioether N-12) | > 30 |
| CC(C)C[C@@H]1NC(=O)[C@H](Cc2c[nH]c3ccccc23)NC(=O)[C@H](Cc2c[nH]cn2)NC(=O)[C@H](CC(=O)O)NC(=O)[C@H](Cc2ccccc2)NC(=O)[C@H](Cc2c[nH]cn2)NC(=O)[C@H](Cc2ccc(O)cc2)NC(=O)CSC[C@@H](C(=O)NCC(N)=O)NC(=O)[C@H](CC(C)C)NC(=O)[C@H](CC(C)C)NC(=O)[C@H](Cc2c[nH]cn2)NC(=O)[C@H](C)NC1=O ({CH2CO}-YHFDHWLAHLLCG-NH2; thioether N-12) | > 30 |
| CC[C@H](C)[C@@H]1NC(=O)[C@H](CC(C)C)NC(=O)[C@H](C)NC(=O)[C@H](CC(C)C)NC(=O)[C@H](Cc2c[nH]c3ccccc23)NC(=O)[C@H](CC(N)=O)NC(=O)[C@H](CC(=O)O)NC(=O)[C@H](Cc2ccccc2)NC(=O)[C@H](Cc2c[nH]cn2)NC(=O)[C@H](Cc2ccc(O)cc2)NC(=O)CSC[C@@H](C(=O)NCC(N)=O)NC(=O)[C@H](CC(C)C)NC1=O ({CH2CO}-YHFDNWLALILCG-NH2; thioether N-12) | > 30 |
| CC(C)C[C@@H]1NC(=O)[C@H](Cc2c[nH]c3ccccc23)NC(=O)[C@H](CC(N)=O)NC(=O)[C@H](CC(=O)O)NC(=O)[C@H](Cc2ccccc2)NC(=O)[C@H](Cc2c[nH]cn2)NC(=O)[C@H](Cc2ccc(O)cc2)NC(=O)CSC[C@@H](C(=O)NCC(N)=O)NC(=O)[C@H](CC(C)C)NC(=O)[C@H](Cc2ccccc2)NC(=O)[C@H](C(C)C)NC(=O)[C@H](CCCNC(=N)N)NC1=O ({CH2CO}-YHFDNWLRVFLCG-NH2; thioether N-12) | > 30 |
| CC(C)C[C@@H]1NC(=O)[C@H](CC(C)C)NC(=O)[C@H](CCCCN)NC(=O)[C@H](CO)NC(=O)[C@H](CC(C)C)NC(=O)[C@H](Cc2c[nH]c3ccccc23)NC(=O)[C@H](CC(N)=O)NC(=O)[C@H](CC(=O)O)NC(=O)[C@H](Cc2ccccc2)NC(=O)[C@H](Cc2c[nH]cn2)NC(=O)[C@H](Cc2ccc(O)cc2)NC(=O)CSC[C@@H](C(=O)NCC(N)=O)NC(=O)[C@H](CC(=O)O)NC1=O ({CH2CO}-YHFDNWLSKLLDCG-NH2; thioether N-13) | > 30 |
| CC(C)C[C@@H]1NC(=O)[C@H](Cc2c[nH]c3ccccc23)NC(=O)[C@H](CO)NC(=O)[C@H](CC(=O)O)NC(=O)[C@H](Cc2ccccc2)NC(=O)[C@H](Cc2c[nH]cn2)NC(=O)[C@H](Cc2ccc(O)cc2)NC(=O)CSC[C@@H](C(=O)NCC(N)=O)NC(=O)[C@H](CCCCN)NC(=O)[C@H](CC(C)C)NC(=O)[C@H](CCCNC(=N)N)NC(=O)[C@H](CCCCN)NC(=O)[C@H](C)NC1=O ({CH2CO}-YHFDSWLAKRLKCG-NH2; thioether N-13) | > 30 |
| CC(C)C[C@@H]1NC(=O)[C@H](C)NC(=O)[C@H]([C@@H](C)O)NC(=O)[C@H](C)NC(=O)[C@H](CC(C)C)NC(=O)[C@H](Cc2c[nH]c3ccccc23)NC(=O)[C@H](CO)NC(=O)[C@H](CC(=O)O)NC(=O)[C@H](Cc2ccccc2)NC(=O)[C@H](Cc2c[nH]cn2)NC(=O)[C@H](Cc2ccc(O)cc2)NC(=O)CSC[C@@H](C(=O)NCC(N)=O)NC(=O)[C@H](CCCNC(=N)N)NC1=O ({CH2CO}-YHFDSWLATALRCG-NH2; thioether N-13) | > 30 |

The next lines start with the values.

| IC50 [µM] | SMILES |
| --- | --- |
| 0.0049 | CC[C@H](C)[C@@H]1NC(=O)[C@H](Cc2cnc[nH]2)NC(=O)[C@H](Cc2ccc(O)cc2)NC(=O)CSC[C@@H](C(=O)NCC(N)=O)NC(=O)CNC(=O)[C@H](CC(C)C)NC(=O)[C@H](CO)NC(=O)CNC(=O)[C@H](Cc2ccc(O)cc2)NC(=O)[C@H](CC(C)C)NC(=O)[C@H](CO)NC(=O)[C@H](C)NC(=O)[C@H](Cc2ccc(O)cc2)NC(=O)[C@@H](Cc2ccc(O)cc2)NC1=O |
| 0.0029 | CC[C@H](C)[C@@H]1NC(=O)[C@H](Cc2c[nH]cn2)NC(=O)[C@H](Cc2ccc(O)cc2)NC(=O)CSC[C@@H](C(=O)NCC(N)=O)NC(=O)CNC(=O)[C@H](CC(C)C)NC(=O)[C@H]([C@H](C)O)NC(=O)CNC(=O)[C@H](Cc2ccc(O)cc2)NC(=O)[C@H](CC(C)C)NC(=O)[C@H](CO)NC(=O)[C@H](Cc2ccc(O)cc2)NC(=O)[C@H](Cc2ccc(O)cc2)NC(=O)[C@H](Cc2ccc(O)cc2)NC1=O |
| 0.254 | CC(C)C[C@@H]1NC(=O)[C@H](C)NC(=O)[C@H](CCCNC(=N)N)NC(=O)[C@H](Cc2ccc(O)cc2)NC(=O)[C@H](Cc2ccc(O)cc2)NC(=O)[C@H](Cc2c[nH]cn2)NC(=O)[C@H](Cc2c[nH]cn2)NC(=O)[C@H](Cc2ccc(O)cc2)NC(=O)SC[C@@H](C(=O)NCC(N)=O)NC(=O)CNC(=O)[C@H](CC(C)C)NC(=O)[C@H](CCC(=O)O)NC(=O)CNC(=O)[C@H](Cc2ccc(O)cc2)NC1=O (YHHYYRALYGELGCG-NH2; linker N-14 via CO) |
| 0.529 | CC[C@H](C)[C@@H]1NC(=O)[C@H](CCCNC(=N)N)NC(=O)[C@H](Cc2ccc(O)cc2)NC(=O)[C@H](Cc2ccc(O)cc2)NC(=O)C(C)NC(=O)[C@H](Cc2c[nH]cn2)NC(=O)[C@H](Cc2ccc(O)cc2)NC(=O)CSC[C@@H](C(=O)NCC(N)=O)NC(=O)CNC(=O)[C@H](CC(C)C)NC(=O)[C@H](CCC(=O)O)NC(=O)CNC(=O)[C@H](Cc2ccc(O)cc2)NC(=O)[C@H](CC(C)C)NC1=O (single isomer, unassigned) |
| > 30 | CC[C@H](C)[C@@H]1NC(=O)[C@H](CCCNC(=N)N)NC(=O)[C@H](Cc2ccc(O)cc2)NC(=O)[C@H](Cc2ccc(O)cc2)NC(=O)[C@H](Cc2c[nH]cn2)NC(=O)[C@H](Cc2c[nH]cn2)NC(=O)[C@H](Cc2ccc(O)cc2)NC(=O)CSC[C@@H](C(=O)NCC(N)=O)NC(=O)[C@H](CO)NC(=O)[C@H](CC(C)C)NC(=O)[C@H](CCC(=O)O)NC(=O)CNC(=O)[C@H](Cc2ccc(O)cc2)NC(=O)[C@H](CC(C)C)NC1=O (stereo in doubt) |
| > 30 | CC[C@H](C)[C@@H]1NC(=O)[C@H](CCCNC(=N)N)NC(=O)[C@H](Cc2ccc(O)cc2)NC(=O)[C@H](Cc2ccc(O)cc2)NC(=O)[C@H](Cc2c[nH]cn2)NC(=O)[C@H](C)NC(=O)[C@H](Cc2ccc(O)cc2)NC(=O)CSC[C@@H](C(=O)NCC(N)=O)NC(=O)CNC(=O)[C@H](CC(C)C)NC(=O)[C@H](CCC(=O)O)NC(=O)CNC(=O)[C@H](Cc2ccc(O)cc2)NC(=O)[C@H](CC(C)C)NC1=O ({CH2CO}-YAHYYRILYGELGCG-NH2; thioether N-14) |
